In ChEMBL document CHEMBL3352322, “Synthesis and biological evaluation of 3-phenethylazetidine derivatives as triple reuptake inhibitors” (Bioorg Med Chem Lett, 2014):

How the values were obtained:
[1] = target: T1, Sodium-dependent serotonin transporter (Homo sapiens, UniProt P31645); conditions: HEK293, at 0.1 µM
[2] = target: T1, Sodium-dependent serotonin transporter; conditions: HEK293, at 1 µM
[3] = target: T1, Sodium-dependent serotonin transporter; conditions: HEK293, at 10 µM
[4] = Stability in human liver microsomes assessed as compound remaining at 1 uM after 30 mins by LC/MS analysis; assay type: ADME; conditions: read-out: Stability

T1 sequence (P31645 whole entry, looked up): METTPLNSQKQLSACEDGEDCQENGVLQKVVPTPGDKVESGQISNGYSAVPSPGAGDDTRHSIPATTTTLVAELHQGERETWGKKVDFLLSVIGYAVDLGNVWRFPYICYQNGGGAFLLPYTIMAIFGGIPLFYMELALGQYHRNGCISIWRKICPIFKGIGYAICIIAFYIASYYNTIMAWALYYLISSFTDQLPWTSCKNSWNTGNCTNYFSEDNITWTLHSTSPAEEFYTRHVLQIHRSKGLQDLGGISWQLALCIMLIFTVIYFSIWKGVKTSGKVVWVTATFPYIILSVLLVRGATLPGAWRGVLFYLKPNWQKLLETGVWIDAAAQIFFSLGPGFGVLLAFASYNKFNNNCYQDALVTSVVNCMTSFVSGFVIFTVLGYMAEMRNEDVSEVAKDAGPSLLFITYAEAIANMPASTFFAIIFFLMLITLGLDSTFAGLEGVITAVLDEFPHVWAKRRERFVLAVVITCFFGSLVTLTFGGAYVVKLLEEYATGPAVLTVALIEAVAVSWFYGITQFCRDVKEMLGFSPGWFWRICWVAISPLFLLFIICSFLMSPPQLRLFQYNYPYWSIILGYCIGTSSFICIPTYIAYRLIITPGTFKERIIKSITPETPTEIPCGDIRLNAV

**Q.** For Fc1ccc(C(CC2CNC2)Oc2ccc(Cl)cc2)cc1F (centres undefined), which inhibition [1] is on record?
**A.** 49%

**Q.** Which inhibition [1] does the source give for Fc1ccc(C(CC2CNC2)Oc2ccccc2Cl)cc1F (centres undefined) here?
**A.** 86%

**Q.** With Fc1ccc(C(CC2CNC2)Oc2ccccc2F)cc1F (centres undefined) as the compound, how does the inhibition [1] read?
**A.** 61%

**Q.** What does the source list for Fc1cc(C(CC2CNC2)Oc2ccc(Cl)cc2)ccc1Cl (centres undefined)?
**A.** inhibition [2]: 100%; inhibition [1]: 65%; inhibition [3]: 100%

**Q.** Which inhibition [1] does the source give for Fc1ccc(C(CC2CNC2)Oc2ccccc2OC(F)(F)F)cc1F (centres undefined) here?
**A.** 19%

**Q.** Which inhibition [1] does the source give for Fc1ccc(OC(CC2CNC2)c2ccc(F)c(F)c2)cc1F (centres undefined) here?
**A.** 63%

**Q.** Which inhibition [2] does the source give for FC(F)(F)Oc1ccccc1OC(CC1CNC1)c1ccc(Cl)c(Cl)c1 (centres undefined) here?
**A.** 93%

**Q.** And the inhibition [1]?
**A.** 16%

**Q.** What about the inhibition [3] of the same compound?
**A.** 100%

**Q.** For c1ccc(OC(CC2CNC2)c2ccc3ccccc3c2)cc1 (centres undefined), which inhibition [1] is on record?
**A.** 56%

**Q.** For Cc1ccc(OC(CC2CNC2)c2ccc(F)c(F)c2)cc1 (centres undefined), which inhibition [1] is on record?
**A.** 83%

**Q.** With COCC(=O)O[C@]1(CCN(C)CCCc2nc3ccccc3[nH]2)CCc2cc(F)ccc2[C@@H]1C(C)C [MIBEFRADIL] as the compound, how does the remaining at 0.5 h, 1 µM [4] read?
**A.** 43%

**Q.** With Fc1ccc(C(CC2CNC2)Oc2ccc(OC(F)(F)F)cc2)cc1F (centres undefined) as the compound, how does the inhibition [1] read?
**A.** 83%

**Q.** Which results are given for Clc1cccc(OC(CC2CNC2)c2ccc(Cl)c(Cl)c2)c1 (centres undefined)?
**A.** inhibition [2]: 100%; inhibition [1]: 35%; inhibition [3]: 100%

**Q.** For Clc1ccccc1OC(CC1CNC1)c1ccccc1 (centres undefined), which inhibition [1] is on record?
**A.** 100%

**Q.** For Fc1ccc(C(CC2CNC2)Oc2cccc(Cl)c2)cc1F (centres undefined), which inhibition [1] is on record?
**A.** 77%

**Q.** With Fc1ccc(C(CC2CNC2)Oc2cccc(OC(F)(F)F)c2)cc1F (centres undefined) as the compound, how does the inhibition [1] read?
**A.** 83%

**Q.** Which results are given for Clc1ccc(OC(CC2CNC2)c2ccc(Cl)c(Cl)c2)cc1 (centres undefined)?
**A.** inhibition [2]: 100%; inhibition [1]: 41%; inhibition [3]: 100%

**Q.** What does the source list for Clc1ccc(OC(CC2CNC2)c2ccc(Cl)c(Cl)c2)cc1Cl (centres undefined)?
**A.** inhibition [2]: 88%; inhibition [1]: 21%; inhibition [3]: 100%

**Q.** For Cc1ccccc1OC(CC1CNC1)c1ccccc1 (centres undefined), which inhibition [1] is on record?
**A.** 100%

**Q.** For Cc1ccc(OC(CC2CNC2)c2ccc(Cl)c(Cl)c2)cc1 (centres undefined), which inhibition [2] is on record?
**A.** 100%

**Q.** What about the inhibition [1] of the same compound?
**A.** 59%

**Q.** What about the inhibition [3] of the same compound?
**A.** 100%

**Q.** For Cc1ccccc1OC(CC1CNC1)c1ccc(F)c(F)c1 (centres undefined), which inhibition [1] is on record?
**A.** 93%

**Q.** With Cc1cccc(OC(CC2CNC2)c2ccc(F)c(F)c2)c1 (centres undefined) as the compound, how does the inhibition [1] read?
**A.** 100%

**Q.** With FC(F)(F)Oc1cccc(OC(CC2CNC2)c2ccc(Cl)c(Cl)c2)c1 (centres undefined) as the compound, how does the inhibition [2] read?
**A.** 77%

**Q.** And the inhibition [1]?
**A.** 9%

**Q.** What about the inhibition [3] of the same compound?
**A.** 100%

**Q.** For Fc1cccc(OC(CC2CNC2)c2ccc(Cl)c(Cl)c2)c1 (centres undefined), which inhibition [2] is on record?
**A.** 100%

**Q.** And the inhibition [1]?
**A.** 26%

**Q.** And the inhibition [3]?
**A.** 100%

**Q.** With Cc1ccccc1OC(CC1CNC1)c1ccc(Cl)c(Cl)c1 (centres undefined) as the compound, how does the inhibition [2] read?
**A.** 100%

**Q.** What about the inhibition [1] of the same compound?
**A.** 25%

**Q.** And the remaining at 0.5 h, 1 µM [4]?
**A.** 89%

**Q.** And the inhibition [3]?
**A.** 100%

**Q.** Which inhibition [1] does the source give for Fc1ccc(C(CC2CNC2)Oc2ccccc2)cc1F (centres undefined) here?
**A.** 48%

**Q.** With Cc1ccccc1OC(CC1CNC1)c1ccc2ccccc2c1 (centres undefined) as the compound, how does the inhibition [1] read?
**A.** 48%

**Q.** Which inhibition [2] does the source give for Clc1ccc(C(CC2CNC2)Oc2ccccc2Cl)cc1Cl (centres undefined) here?
**A.** 100%

**Q.** And the inhibition [1]?
**A.** 40%

**Q.** And the inhibition [3]?
**A.** 100%

**Q.** For Fc1cc(C(CC2CNC2)Oc2ccccc2OC(F)(F)F)ccc1Cl (centres undefined), which inhibition [2] is on record?
**A.** 100%

**Q.** And the inhibition [1]?
**A.** 48%

**Q.** What about the inhibition [3] of the same compound?
**A.** 100%

**Q.** With Clc1ccccc1OC(CC1CNC1)c1ccc2ccccc2c1 (centres undefined) as the compound, how does the inhibition [1] read?
**A.** 25%

**Q.** With Fc1ccc(OC(CC2CNC2)c2ccc(Cl)c(Cl)c2)cc1F (centres undefined) as the compound, how does the inhibition [2] read?
**A.** 100%

**Q.** What about the inhibition [1] of the same compound?
**A.** 31%

**Q.** And the inhibition [3]?
**A.** 100%

**Q.** Which results are given for CNCCC(Oc1ccccc1OC)c1ccccc1 (centres undefined)?
**A.** inhibition [2]: 43%; inhibition [3]: 85%

**Q.** Which inhibition [1] does the source give for Fc1ccc(C(CC2CNC2)Oc2ccc(Cl)c(Cl)c2)cc1F (centres undefined) here?
**A.** 44%

**Q.** Which inhibition [2] does the source give for Fc1cc(C(CC2CNC2)Oc2cccc(OC(F)(F)F)c2)ccc1Cl (centres undefined) here?
**A.** 97%

**Q.** And the inhibition [1]?
**A.** 25%

**Q.** And the inhibition [3]?
**A.** 100%

**Q.** With FC(F)(F)Oc1ccc(OC(CC2CNC2)c2ccc(Cl)c(Cl)c2)cc1 (centres undefined) as the compound, how does the inhibition [2] read?
**A.** 98%

**Q.** And the inhibition [1]?
**A.** 16%

**Q.** And the inhibition [3]?
**A.** 100%

**Q.** For c1ccc(OC(CC2CNC2)c2ccccc2)cc1 (centres undefined), which inhibition [1] is on record?
**A.** 66%

**Q.** Which remaining at 0.5 h, 1 µM [4] does the source give for Clc1ccc([C@]23CNC[C@H]2C3)cc1Cl [AMITIFADINE] here?
**A.** 67%

**Q.** For Fc1cccc(OC(CC2CNC2)c2ccc(F)c(F)c2)c1 (centres undefined), which inhibition [1] is on record?
**A.** 94%

**Q.** For Fc1ccc(OC(CC2CNC2)c2ccc(F)c(F)c2)cc1 (centres undefined), which inhibition [1] is on record?
**A.** 55%

**Q.** For Fc1ccccc1OC(CC1CNC1)c1ccccc1 (centres undefined), which inhibition [1] is on record?
**A.** 64%
